The record followed here is article PMC3898987 (Bioorganic & Medicinal Chemistry, 2013).

Numbering of substitutions follows the chain as printed.

Experiment [1] concerns the target T1, 5-HT3AB receptor, 5-HT3B subunit W90C (Homo sapiens, UniProt O95264+P46098, W83C).
T1 sequence (P46098 24-478): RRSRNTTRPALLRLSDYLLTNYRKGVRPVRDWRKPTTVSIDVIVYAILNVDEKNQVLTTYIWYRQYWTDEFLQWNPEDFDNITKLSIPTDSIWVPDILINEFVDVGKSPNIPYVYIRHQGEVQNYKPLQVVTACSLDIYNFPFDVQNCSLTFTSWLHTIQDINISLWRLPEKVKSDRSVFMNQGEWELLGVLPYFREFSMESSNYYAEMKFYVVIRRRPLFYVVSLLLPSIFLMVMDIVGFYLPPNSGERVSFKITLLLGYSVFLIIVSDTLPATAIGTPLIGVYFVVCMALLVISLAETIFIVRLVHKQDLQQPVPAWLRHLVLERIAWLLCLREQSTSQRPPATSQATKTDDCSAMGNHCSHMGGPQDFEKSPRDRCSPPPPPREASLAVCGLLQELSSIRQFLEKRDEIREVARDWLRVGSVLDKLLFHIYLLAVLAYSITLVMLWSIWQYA
T1 sequence (O95264 22-441 W83C): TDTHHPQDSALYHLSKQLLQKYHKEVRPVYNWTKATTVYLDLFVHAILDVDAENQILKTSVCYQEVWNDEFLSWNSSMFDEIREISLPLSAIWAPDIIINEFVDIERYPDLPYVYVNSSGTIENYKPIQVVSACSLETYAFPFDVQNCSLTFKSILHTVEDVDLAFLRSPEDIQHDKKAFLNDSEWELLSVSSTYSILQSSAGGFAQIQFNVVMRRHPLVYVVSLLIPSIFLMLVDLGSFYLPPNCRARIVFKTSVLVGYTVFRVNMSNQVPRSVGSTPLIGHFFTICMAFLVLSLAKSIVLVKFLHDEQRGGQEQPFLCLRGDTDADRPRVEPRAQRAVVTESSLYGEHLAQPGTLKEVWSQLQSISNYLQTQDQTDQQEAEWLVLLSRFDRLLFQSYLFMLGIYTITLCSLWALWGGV
As to the kind of experiment: radioligand saturation binding, transfected HEK293 membranes. As to conditions: [3H]-palonosetron saturation, 5-HT3AB with 5-HT3B W90C, 4 °C, 24 h.
Method: (§1) Human embryonic kidney (HEK) 293 cells were cultured on 90 mm tissue culture plates at 37 °C and 7% CO2 in a humidified atmosphere. They were grown in DMEM:F12 (Dulbecco’s Modified Eagle’s Medium/Nutrient Mix F12 (1:1)) with GlutaMAX I™ containing 10% fetal calf serum and passaged when confluent. For radioligand binding studies, cells in 90 mm dishes were transfected at 60–70% confluency using polyethyleneimine and incubated for 3–4 days before use. For FlexStation assays, transfected cells were plated on 96-well plates and incubated 1–2 days before assay. […]
(§2) Eight-point binding assays were performed to produce saturation binding curves. […] Radioactive counts were measured using a Beckman LS6000SC liquid scintillation counter (Fullerton, California, USA).
(§3) Data were analyzed by iterative curve fitting using GraphPad Prism v5 (San Diego, CA) according to the following equation: B=Bmax[L]^n/kdn+[L]^n where B is the amount of bound radioligand, Bmax is the maximum specific binding at equilibrium, [L] is the concentration of radioligand, Kd is the equilibrium dissociation constant of the radioligand, and n is the Hill coefficient.

In experiment [2] the target is T2, 5-HT3AB receptor, 5-HT3B subunit Y143A (Homo sapiens, UniProt O95264+P46098, Y136A).
T2 sequence (P46098 24-478): T1 sequence (P46098 24-478)
T2 sequence (O95264 22-441 Y136A): T1 sequence (O95264 22-441 W83C) with C62W, Y115A
Described as above. Conditions: [3H]-palonosetron saturation, 5-HT3AB with 5-HT3B Y143A, 4 °C, 24 h.
Method: as §1, §2, §3

The next experiment addresses T3, WT 5-HT3A receptor (Homo sapiens, UniProt P46098).
T3 sequence (P46098 24-478): T1 sequence (P46098 24-478)
Described as above. As to conditions: [3H]-palonosetron saturation, 4 °C, 24 h.

For experiment [3], the target named is T4, 5-HT3AB receptor, 5-HT3B subunit H73A (Homo sapiens, UniProt O95264+P46098, H66A).
T4 sequence (P46098 24-478): T1 sequence (P46098 24-478)
T4 sequence (O95264 22-441 H66A): T1 sequence (O95264 22-441 W83C) with H45A, C62W
As to the kind of experiment: cell-based.
Method: Human embryonic kidney (HEK) 293 cells were cultured on 90 mm tissue culture plates at 37 °C and 7% CO2 in a humidified atmosphere. They were grown in DMEM:F12 (Dulbecco’s Modified Eagle’s Medium/Nutrient Mix F12 (1:1)) with GlutaMAX I™ containing 10% fetal calf serum and passaged when confluent. […] For FlexStation assays, transfected cells were plated on 96-well plates and incubated 1–2 days before assay.
Fluorometric studies were undertaken using a FlexStation® (Molecular Devices, Sunnyvale, CA, USA) as previously described.[11]
Fluorescence was measured every 2 s for 200 s. […] Concentration–response and inhibition curves were obtained for each mutant, and the fluorescence values were normalized to the maximal response.

A further experiment deals with T5, 5-HT3A receptor F130Y (Homo sapiens, UniProt P46098, F125Y).
T5 sequence (P46098 24-478 F125Y): T1 sequence (P46098 24-478) with F102Y
The experiment in a line: radioligand saturation binding, transfected HEK293 membranes. As to conditions: [3H]-palonosetron saturation, 5-HT3A F130Y, 4 °C, 24 h.

Method for 5-HT3A receptor F130Y: as §1, §2, §3
Method for WT 5-HT3A receptor: as §1, §2, §3

As for `O=C1c2cccc3c2[C@H](CCC3)CN1[C@@H]1CN2CCC1CC2` [Palonosetron], the Kd amounted to 340 ± 60 pM in experiment [1], 180 ± 40 pM in experiment [2], 320 ± 70 pM at WT 5-HT3A receptor and 260 ± 90 pM at 5-HT3A receptor F130Y. The half-inhibitory concentration (IC50) in experiment [3] was determined as 970 ± 260 pM.
